Assay results published in PubChem BioAssay AID330 (DTP/NCI, 2004).
“And” between values parts separate entries of the source, which are not always exact repeats. Equal entries are not always repeated. Inconclusive results and toxic doses are left out.

Tested on: P388 leukemia ip, CD2F1 mice, survival T/C
Experiment: NCI In Vivo Anticancer Drug Screen. Data for tumor model P388 Leukemia (intraperitoneal) in CD2F1 (CDF1) mice
Conditions: endpoint: median survival time, higher = longer survival
Procedure, shortened: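 Mice carrying the transplanted tumor received test compound or vehicle. Survival was recorded in each group, and the value is the treated-group measurement divided by that of the vehicle-treated control group.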

[1] = dose: 50.0 mg/kg/injection, schedule: Q01DX005 (ip), vehicle: saline with Tween-80
[2] = dose: 100.0 mg/kg/injection, schedule: Q01DX005 (ip), vehicle: saline with Tween-80
[3] = dose: 200.0 mg/kg/injection, schedule: Q01DX005 (ip), vehicle: saline with Tween-80
[4] = dose: 25.0 mg/kg/injection, schedule: Q01DX005 (ip), vehicle: Klucel (hydroxypropylcellulose) (HPC)
[5] = dose: 50.0 mg/kg/injection, schedule: Q01DX005 (ip), vehicle: Klucel (hydroxypropylcellulose) (HPC)
[6] = dose: 100.0 mg/kg/injection, schedule: Q01DX005 (ip), vehicle: Klucel (hydroxypropylcellulose) (HPC)
[7] = dose: 200.0 mg/kg/injection, schedule: Q01DX005 (ip), vehicle: Klucel (hydroxypropylcellulose) (HPC)
[8] = dose: 25.0 mg/kg/injection, schedule: Q01DX005 (ip), vehicle: saline with Tween-80

**Q.** Which T/C (dose: 12.5 mg/kg/injection, schedule: Q04DX003 (ip), vehicle: distilled water + Tween-80) does the source give for COc1ccc2c(c1O)-c1cc(O)cc3c1C(C2)N(C(=O)CN(CCCl)CCCl)CC3 (centres undefined) here?
**A.** 158 % of control

**Q.** What about the T/C (dose: 12.5 mg/kg/injection, schedule: Q04DX003 (ip), vehicle: water) of the same compound?
**A.** 158 % of control

**Q.** And the T/C (dose: 25.0 mg/kg/injection, schedule: Q04DX003 (ip), vehicle: distilled water + Tween-80)?
**A.** 114 % of control

**Q.** What about the T/C (dose: 25.0 mg/kg/injection, schedule: Q04DX003 (ip), vehicle: water) of the same compound?
**A.** 116 % of control

**Q.** What about the T/C (dose: 50.0 mg/kg/injection, schedule: Q04DX003 (ip), vehicle: water) of the same compound?
**A.** 96 % of control

**Q.** How did the T/C (dose: 100.0 mg/kg/injection, schedule: Q01DX001 (ip), vehicle: saline with Tween-80) turn out when CCOC(=O)/C(=C\c1c(OC(C)=O)cn2c(C)cccc12)C(C)=O was run?
**A.** 98 % of control

**Q.** What about the T/C (dose: 200.0 mg/kg/injection, schedule: Q01DX001 (ip), vehicle: saline with Tween-80) of the same compound?
**A.** 94 % of control

**Q.** What about the T/C (dose: 400.0 mg/kg/injection, schedule: Q01DX001 (ip), vehicle: saline with Tween-80) of the same compound?
**A.** 94 % of control

**Q.** With COc1ccc(/C(C)=N/NS(=O)(=O)c2ccc(C)cc2)cc1OC as the compound, how does the T/C (dose: 25.0 mg/kg/injection, schedule: Q01DX009 (ip), vehicle: other) read?
**A.** 97 % of control

**Q.** And the T/C (dose: 50.0 mg/kg/injection, schedule: Q01DX009 (ip), vehicle: other)?
**A.** 96 % of control

**Q.** What about the T/C (dose: 100.0 mg/kg/injection, schedule: Q01DX009 (ip), vehicle: other) of the same compound?
**A.** 93 % of control

**Q.** And the T/C (dose: 200.0 mg/kg/injection, schedule: Q01DX009 (ip), vehicle: other)?
**A.** 97 % of control

**Q.** What about the T/C (dose: 400.0 mg/kg/injection, schedule: Q01DX009 (ip), vehicle: other) of the same compound?
**A.** 88 % of control

**Q.** How did the T/C (dose: 60.0 mg/kg/injection, schedule: Q01DX005 (ip), vehicle: saline with Tween-80) turn out when CCc1c(-c2ccccc2)nc(N(C)C)oc1=O was run?
**A.** 106 % of control

**Q.** What about the T/C (dose: 120.0 mg/kg/injection, schedule: Q01DX005 (ip), vehicle: saline with Tween-80) of the same compound?
**A.** 100 % of control

**Q.** What about the T/C (dose: 240.0 mg/kg/injection, schedule: Q01DX005 (ip), vehicle: saline with Tween-80) of the same compound?
**A.** 98 % of control

**Q.** What does the source list for COc1cc2c(OC)cc1CCCC(=O)CCCc1cc(OC)c(cc1OC)CCCC(=O)CCC2?
**A.** T/C [1]: 100 % of control; T/C [2]: 98 % of control; T/C [3]: 92 % of control

**Q.** What does the source list for COc1ccc(C(=O)N2C3C4C=CC(C4)C3N2C(=O)c2ccc(OC)cc2)cc1 (centres undefined)?
**A.** T/C [4]: 99 % of control; T/C [5]: 92 % of control and 93 % of control; T/C [6]: 95 % of control; T/C [7]: 88 % of control

**Q.** Which results are given for N#Cc1ccc(NN=NCCCCl)cc1?
**A.** T/C (dose: 25.0 mg/kg/injection, schedule: Q01DX005 (ip), vehicle: distilled water + Tween-80): 95 % of control; T/C [8]: 100 % of control; T/C (dose: 50.0 mg/kg/injection, schedule: Q01DX005 (ip), vehicle: distilled water + Tween-80): 93 % of control; T/C [1]: 100 % of control; T/C (dose: 100.0 mg/kg/injection, schedule: Q01DX005 (ip), vehicle: distilled water + Tween-80): 95 % of control; T/C [2]: 121 % of control

**Q.** For COc1ccc(N2CSC(=S)N(c3ccc(OC)cc3)C2)cc1, which T/C (dose: 400.0 mg/kg/injection, schedule: Q01DX009 (ip), vehicle: saline with Tween-80) is on record?
**A.** 86 % of control

**Q.** Which results are given for CC(=O)Oc1ccc(OC(C)=O)c2c1CC=CC2?
**A.** T/C [5]: 105 % of control; T/C [6]: 105 % of control; T/C [7]: 100 % of control

**Q.** What does the source list for CC1CC[N-]CC1.CC1CC[N-]CC1.CC1CC[N-]CC1.CC1CC[N-]CC1.CS(C)=O.CS(C)=O.[Cl-].[Cl-].[Cl-].[Cl-].[Pt+4].[Rh+3]?
**A.** T/C (dose: 0.19 mg/kg/injection, schedule: Q01DX009 (ip), vehicle: saline): 98 % of control; T/C (dose: 0.38 mg/kg/injection, schedule: Q01DX009 (ip), vehicle: saline): 114 % of control; T/C (dose: 0.75 mg/kg/injection, schedule: Q01DX009 (ip), vehicle: saline): 105 % of control; T/C (dose: 1.5 mg/kg/injection, schedule: Q01DX009 (ip), vehicle: saline): 108 % of control; T/C (dose: 3.0 mg/kg/injection, schedule: Q01DX009 (ip), vehicle: saline): 115 % of control

**Q.** Which T/C (dose: 60.0 mg/kg/injection, schedule: Q01DX005 (ip), vehicle: saline) does the source give for CCc1c(-c2ccccc2)nc(N)nc1-c1nc(N)nc(-c2ccccc2)c1CC here?
**A.** 98 % of control

**Q.** And the T/C (dose: 120.0 mg/kg/injection, schedule: Q01DX005 (ip), vehicle: saline)?
**A.** 100 % of control

**Q.** Which T/C (dose: 6.25 mg/kg/injection, schedule: Q01DX005 (ip), vehicle: saline with Tween-80) does the source give for CSC(=S)n1nc(C)c(N=Nc2cc(Cl)ccc2Cl)c1C here?
**A.** 93 % of control

**Q.** And the T/C (dose: 12.5 mg/kg/injection, schedule: Q01DX005 (ip), vehicle: saline with Tween-80)?
**A.** 99 % of control

**Q.** And the T/C [8]?
**A.** 95 % of control

**Q.** And the T/C [3]?
**A.** 98 % of control

**Q.** What does the source list for C=C(C)CC(C)/C(=N\N(C)C)c1ccccc1 (centres undefined)?
**A.** T/C (dose: 50.0 mg/kg/injection, schedule: Q01DX009 (ip), vehicle: saline): 98 % of control; T/C (dose: 100.0 mg/kg/injection, schedule: Q01DX009 (ip), vehicle: saline): 100 % of control; T/C (dose: 200.0 mg/kg/injection, schedule: Q01DX009 (ip), vehicle: saline): 100 % of control

**Q.** Which results are given for O=C1CC2(CCc3ccccc32)C(=O)N1CN1CCN(c2ccccn2)CC1 (centres undefined)?
**A.** T/C [1]: 106 % of control; T/C [2]: 109 % of control; T/C [3]: 92 % of control

**Q.** How did the T/C (dose: 50.0 mg/kg/injection, schedule: Q01DX009 (ip), vehicle: Klucel (hydroxypropylcellulose) (HPC)) turn out when COc1ccc2c(c1)CCc1nc3n(c1-2)C(O)(c1ccccc1)C(CC(=O)O)S3 (centres undefined) was run?
**A.** 94 % of control

**Q.** And the T/C (dose: 100.0 mg/kg/injection, schedule: Q01DX009 (ip), vehicle: Klucel (hydroxypropylcellulose) (HPC))?
**A.** 105 % of control

**Q.** And the T/C (dose: 200.0 mg/kg/injection, schedule: Q01DX009 (ip), vehicle: Klucel (hydroxypropylcellulose) (HPC))?
**A.** 103 % of control

**Q.** What does the source list for CC(C)NCC(O)CC(c1ccccc1)c1ccccc1 (centres undefined)?
**A.** T/C (dose: 50.0 mg/kg/injection, schedule: Q01DX009 (ip), vehicle: saline with Tween-80): 95 % of control; T/C (dose: 100.0 mg/kg/injection, schedule: Q01DX009 (ip), vehicle: saline with Tween-80): 111 % of control

**Q.** With COc1cccc2c1C(=O)c1c(O)c3c(c(O)c1C2=O)C[C@@](O)(C(C)O)C[C@@H]3OC1CC(N2CCCCC2)C(O)C(C)O1 (some centres undefined) as the compound, how does the T/C (dose: 2.5 mg/kg/injection, schedule: Q04DX003 (ip), vehicle: water) read?
**A.** 120 % of control

**Q.** And the T/C (dose: 5.0 mg/kg/injection, schedule: Q04DX003 (ip), vehicle: water)?
**A.** 162 % of control

**Q.** What about the T/C (dose: 10.0 mg/kg/injection, schedule: Q04DX003 (ip), vehicle: water) of the same compound?
**A.** 118 % of control

**Q.** And the T/C (dose: 20.0 mg/kg/injection, schedule: Q04DX003 (ip), vehicle: water)?
**A.** 110 % of control

**Q.** And the T/C (dose: 40.0 mg/kg/injection, schedule: Q04DX003 (ip), vehicle: water)?
**A.** 96 % of control

**Q.** How did the T/C (dose: 100.0 mg/kg/injection, schedule: Q01DX001 (ip), vehicle: saline) turn out when OCCCCCCCCCCCC1C=CCC1 (centres undefined) was run?
**A.** 101 % of control

**Q.** What about the T/C (dose: 200.0 mg/kg/injection, schedule: Q01DX001 (ip), vehicle: saline) of the same compound?
**A.** 101 % of control

**Q.** What about the T/C (dose: 400.0 mg/kg/injection, schedule: Q01DX001 (ip), vehicle: saline) of the same compound?
**A.** 107 % of control

**Q.** How did the T/C [1] turn out when CC(C)CC1NC(=O)N(CCN(C)C)C1=O (centres undefined) was run?
**A.** 100 % of control

**Q.** What about the T/C [2] of the same compound?
**A.** 106 % of control

**Q.** What about the T/C [3] of the same compound?
**A.** 100 % of control

**Q.** For COC(=O)c1ccc(C(N)=O)nc1, which T/C (dose: 25.0 mg/kg/injection, schedule: Q04DX002 (ip), vehicle: Klucel (hydroxypropylcellulose) (HPC)) is on record?
**A.** 97 % of control

**Q.** What about the T/C (dose: 50.0 mg/kg/injection, schedule: Q04DX002 (ip), vehicle: Klucel (hydroxypropylcellulose) (HPC)) of the same compound?
**A.** 101 % of control

**Q.** And the T/C (dose: 100.0 mg/kg/injection, schedule: Q04DX002 (ip), vehicle: Klucel (hydroxypropylcellulose) (HPC))?
**A.** 96 % of control

**Q.** And the T/C (dose: 200.0 mg/kg/injection, schedule: Q04DX002 (ip), vehicle: Klucel (hydroxypropylcellulose) (HPC))?
**A.** 105 % of control

**Q.** What does the source list for COc1ccc(Cc2cc(N=NC(N)=O)c(C)cc2O)cc1?
**A.** T/C (dose: 12.5 mg/kg/injection, schedule: Q01DX005 (ip), vehicle: Klucel (hydroxypropylcellulose) (HPC)): 106 % of control; T/C [4]: 94 % of control; T/C [5]: 97 % of control

**Q.** How did the T/C (dose: 12.5 mg/kg/injection, schedule: Q04DX003 (ip), vehicle: Klucel (hydroxypropylcellulose) (HPC)) turn out when Cc1ccc(OP(=O)(Oc2ccc(C)cc2)Oc2ccc(C)cc2)cc1.Cc1ccc(OP(=O)(Oc2ccc(C)cc2)Oc2ccc(C)cc2)cc1.[Cl][Ni][Cl] was run?
**A.** 102 % of control

**Q.** What about the T/C (dose: 25.0 mg/kg/injection, schedule: Q04DX003 (ip), vehicle: Klucel (hydroxypropylcellulose) (HPC)) of the same compound?
**A.** 100 % of control and 109 % of control and 114 % of control

**Q.** What about the T/C (dose: 50.0 mg/kg/injection, schedule: Q04DX003 (ip), vehicle: Klucel (hydroxypropylcellulose) (HPC)) of the same compound?
**A.** 100 % of control and 102 % of control

**Q.** What does the source list for Cc1ccc(S(=O)(=O)N2CCC(O)(c3ccccc3)CC2)cc1?
**A.** T/C (dose: 100.0 mg/kg/injection, schedule: Q01DX001 (ip), vehicle: Klucel (hydroxypropylcellulose) (HPC)): 94 % of control; T/C (dose: 200.0 mg/kg/injection, schedule: Q01DX001 (ip), vehicle: Klucel (hydroxypropylcellulose) (HPC)): 94 % of control; T/C (dose: 400.0 mg/kg/injection, schedule: Q01DX001 (ip), vehicle: Klucel (hydroxypropylcellulose) (HPC)): 93 % of control
